Laboratory results as given in patent US11186533B2, “Chalcone compound and preparation method thereof” (SOUTH CHINA BOTANICAL GARDEN, CHINESE ACADEMY OF SCIENCES, priority 2018, dated 2021).
pIC50: −log10 of the molar value.

Key:
[1] = DPPH radical scavenging assay; details: 0.2 mM DPPH in absolute ethanol, dark, room temperature, 30 minutes, absorbance at 517 nm; read-out: IC50 value against DPPH radicals
Method: DPPH is a stable free radical. When a free radical scavenger is present, light absorption of DPPH will be reduced when the single electron is scavenged, which allows to evaluate free radical scavenging ability of the substance and accordingly determine antioxidant ability thereof. The DPPH radical scavenging ability of the compound 2,2′,4,4′-tetrahydroxy-3-(2″-hydroxy-3″-methylbutyl-3″-alkenyl)chalcone was measured through the DPPH radical scavenging assay, so as to evaluate the antioxidant ability of the compound. The assay comprised the following steps:
1,1-Diphenyl-2-picrylhydrazyl (DPPH) was dissolved in absolute ethanol to obtain a solution with a concentration of 0.2 mM. The compound 2,2′,4,4′-tetrahydroxy-3-(2″-hydroxy-3″-methylbutyl-3″-alkenyl)chalcone was dissolved in absolute ethanol. 80 μL of the ethanol solution of 2,2′,4,4′-tetrahydroxy-3-(2″-hydroxy-3″-methylbutyl-3″-alkenyl)chalcone and 160 μL of the 0.2 mM DPPH ethanol solution were mixed and the mixture was placed in dark at room temperature for 30 minutes. Then, light absorbance at 517 nm was measured using a microplate reader (SpectraMax 190, Molecular Devices, USA).

Solubility in methanol = assay type: physicochemical

pIC50 [1]: 4.67 | solubility in methanol (Solubility in methanol): easily soluble in methanol
Compound: C=C(C)C(O)Cc1c(O)ccc(C(=O)/C=C/c2ccc(O)cc2O)c1O (centres unmarked) [compound 1, 2,2′,4,4′-tetrahydroxy-3-(2″-hydroxy-3″-methylbutyl-3″-alkenyl)chalcone]
